Data as given in patent US12440472B2, “Stable tryptamine oral films” (INTELGENX CORP., priority 2021, dated 2025).

Tests used:
[1] = administered orally; cited from earlier work
[2] = Stability studies comparing phosphoric acid with citric acid and antioxidants/stabilizers (films stored at 50 C); conditions: compared with film made with only phosphoric acid, 50 C. for two weeks

Compound	drug absorbed into the bloodstream [1]	time of maximum plasma concentration [1]	degradation products / impurity profile of psilocybin film with stabilizer or acid [2]	degradation products / impurity profile of psilocybin film with stabilizer or acid ([2]; listed as copper)
CN(C)CCc1c[nH]c2cccc(OP(=O)(O)O)c12 [psilocybin]	about 50%	approximately 80 minutes		
Cc1cc(C(C)(C)C)c(O)c(C(C)(C)C)c1 [BHT]			promoting the degradation	
vitamin E			promoting the degradation	
[Cl][Cu][Cl] [copper chloride, Copper (II) chloride]			no effect	promoting the degradation
